{"source": "ChEMBL document CHEMBL1201862", "about": "“PubChem BioAssay data set” (2004)", "key": {"[1]": {"biological_target": "Eukaryotic translation initiation factor 4H (Homo sapiens, UniProt Q15056)", "assay": "eIF4H binding inhibition – biochemical, uHTS, fluorescence polarization, translation initiation inhibitor project, primary screen (AID 2012)"}, "[2]": {"biological_target": "Polyadenylate-binding protein 1 (Homo sapiens, UniProt P11940)", "sequence (P11940 whole entry)": "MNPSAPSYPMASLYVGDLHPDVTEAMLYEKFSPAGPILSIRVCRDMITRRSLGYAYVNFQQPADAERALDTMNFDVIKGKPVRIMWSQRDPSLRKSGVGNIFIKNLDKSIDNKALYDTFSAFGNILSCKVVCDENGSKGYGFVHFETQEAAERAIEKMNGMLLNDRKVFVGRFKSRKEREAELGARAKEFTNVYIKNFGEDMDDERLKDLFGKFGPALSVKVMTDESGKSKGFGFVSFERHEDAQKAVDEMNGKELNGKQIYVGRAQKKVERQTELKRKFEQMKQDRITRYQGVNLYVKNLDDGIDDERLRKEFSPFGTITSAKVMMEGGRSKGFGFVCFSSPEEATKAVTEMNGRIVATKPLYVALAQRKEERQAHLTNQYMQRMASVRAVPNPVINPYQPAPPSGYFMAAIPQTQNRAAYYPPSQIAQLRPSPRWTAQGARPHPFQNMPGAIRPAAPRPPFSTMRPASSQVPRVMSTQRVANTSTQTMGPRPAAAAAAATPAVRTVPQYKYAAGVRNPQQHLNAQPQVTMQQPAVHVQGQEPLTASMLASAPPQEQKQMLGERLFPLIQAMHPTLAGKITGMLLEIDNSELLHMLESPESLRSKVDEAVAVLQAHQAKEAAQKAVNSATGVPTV", "assay": "blockers of PABP interaction with poly(A) – biochemical, fluorescence polarization, […] (AID 2014)"}, "Mucolipin-3": {"biological_target": "Mucolipin-3 (Homo sapiens, UniProt Q8TDD5)", "sequence (Q8TDD5 whole entry)": "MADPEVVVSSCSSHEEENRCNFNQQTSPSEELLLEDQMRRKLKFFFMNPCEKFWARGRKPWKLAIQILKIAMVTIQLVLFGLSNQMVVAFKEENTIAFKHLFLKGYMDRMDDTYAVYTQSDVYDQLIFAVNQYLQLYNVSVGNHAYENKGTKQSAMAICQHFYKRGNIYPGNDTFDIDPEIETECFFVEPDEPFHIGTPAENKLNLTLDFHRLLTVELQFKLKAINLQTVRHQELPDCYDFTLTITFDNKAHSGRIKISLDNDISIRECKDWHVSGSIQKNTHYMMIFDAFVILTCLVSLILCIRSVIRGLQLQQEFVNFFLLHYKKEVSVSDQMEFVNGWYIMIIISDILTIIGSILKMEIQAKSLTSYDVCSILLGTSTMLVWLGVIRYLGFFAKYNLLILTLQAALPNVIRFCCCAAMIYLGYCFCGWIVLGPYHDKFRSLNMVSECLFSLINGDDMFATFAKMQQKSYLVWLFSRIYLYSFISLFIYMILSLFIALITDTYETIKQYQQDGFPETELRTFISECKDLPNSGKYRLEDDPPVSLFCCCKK", "assay": "Dose response cell-based high-throughput screening assay for agonists of the transient receptor potential channel ML3 (TRPML3). [Related pubchem assays: 1526, 1424, 1448 ]", "assay_type": "functional"}, "Ion channel NompC": {"biological_target": "Ion channel NompC (Danio rerio, UniProt Q7T1G6)", "sequence (Q7T1G6 whole entry)": "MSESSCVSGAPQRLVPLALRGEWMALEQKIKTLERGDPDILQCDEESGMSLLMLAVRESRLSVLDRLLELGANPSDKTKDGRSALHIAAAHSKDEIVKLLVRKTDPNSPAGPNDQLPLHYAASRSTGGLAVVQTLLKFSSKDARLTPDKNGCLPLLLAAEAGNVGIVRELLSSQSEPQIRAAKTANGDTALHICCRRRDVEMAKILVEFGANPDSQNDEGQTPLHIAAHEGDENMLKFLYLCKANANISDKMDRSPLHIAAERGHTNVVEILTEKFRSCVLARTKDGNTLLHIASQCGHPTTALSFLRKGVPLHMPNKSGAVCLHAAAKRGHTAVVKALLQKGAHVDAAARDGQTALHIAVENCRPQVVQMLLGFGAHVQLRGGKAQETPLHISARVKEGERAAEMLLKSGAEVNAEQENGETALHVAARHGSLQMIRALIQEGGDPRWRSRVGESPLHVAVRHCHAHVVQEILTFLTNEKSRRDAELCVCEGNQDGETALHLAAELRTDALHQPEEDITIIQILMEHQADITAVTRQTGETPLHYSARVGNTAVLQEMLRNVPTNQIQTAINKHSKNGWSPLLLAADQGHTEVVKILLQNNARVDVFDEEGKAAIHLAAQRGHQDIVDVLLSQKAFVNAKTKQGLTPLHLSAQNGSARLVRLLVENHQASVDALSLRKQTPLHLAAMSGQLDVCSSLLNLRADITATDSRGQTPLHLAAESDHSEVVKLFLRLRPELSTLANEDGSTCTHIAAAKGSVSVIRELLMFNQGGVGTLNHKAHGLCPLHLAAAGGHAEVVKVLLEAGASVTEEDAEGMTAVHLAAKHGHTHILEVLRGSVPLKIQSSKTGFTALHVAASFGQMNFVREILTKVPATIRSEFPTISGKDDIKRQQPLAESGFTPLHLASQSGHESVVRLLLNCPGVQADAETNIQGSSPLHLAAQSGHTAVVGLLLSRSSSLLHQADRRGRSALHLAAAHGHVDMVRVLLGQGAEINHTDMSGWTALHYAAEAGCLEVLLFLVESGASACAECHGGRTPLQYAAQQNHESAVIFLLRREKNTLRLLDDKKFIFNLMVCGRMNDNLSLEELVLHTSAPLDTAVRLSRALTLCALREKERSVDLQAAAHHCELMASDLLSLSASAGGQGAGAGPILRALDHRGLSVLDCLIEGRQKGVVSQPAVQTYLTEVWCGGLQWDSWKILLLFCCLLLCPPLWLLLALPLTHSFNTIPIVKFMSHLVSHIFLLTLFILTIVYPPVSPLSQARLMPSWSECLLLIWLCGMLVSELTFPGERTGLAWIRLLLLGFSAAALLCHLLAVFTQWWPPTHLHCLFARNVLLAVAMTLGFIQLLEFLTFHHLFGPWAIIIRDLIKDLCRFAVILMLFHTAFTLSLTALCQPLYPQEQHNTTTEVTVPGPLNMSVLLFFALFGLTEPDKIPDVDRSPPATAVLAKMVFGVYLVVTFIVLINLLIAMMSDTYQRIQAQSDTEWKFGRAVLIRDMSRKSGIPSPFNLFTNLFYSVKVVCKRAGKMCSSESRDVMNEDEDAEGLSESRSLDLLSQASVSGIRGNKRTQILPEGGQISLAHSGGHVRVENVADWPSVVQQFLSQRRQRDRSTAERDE", "assay": "Fluorescence counterscreen assay for TRPML3 agonists: dose response cell-based high-throughput screening assay to identify agonists of the transient receptor potential channel N1 (TRPN1). [Related pubchem assays: 1526, 1424, 1448 ]", "assay_type": "functional"}, "[3]": {"tested_on": "Streptococcus sp. 'group A'", "assay": "Streptococcus pyogenes SK(-)GAS viability under kanamycin – luminescence, BacTiterGlo, confirmation, counter-screen for streptokinase expression inhibitor project, dose response (AID 1900)", "assay_type": "functional, organism-based"}, "cells [4]": {"assay": "cells", "assay_type": "functional, cell-based"}, "Streptokinase A": {"biological_target": "T1, Streptokinase A (Streptococcus pyogenes serotype M1, UniProt P10520)", "T1 sequence (P10520 whole entry)": "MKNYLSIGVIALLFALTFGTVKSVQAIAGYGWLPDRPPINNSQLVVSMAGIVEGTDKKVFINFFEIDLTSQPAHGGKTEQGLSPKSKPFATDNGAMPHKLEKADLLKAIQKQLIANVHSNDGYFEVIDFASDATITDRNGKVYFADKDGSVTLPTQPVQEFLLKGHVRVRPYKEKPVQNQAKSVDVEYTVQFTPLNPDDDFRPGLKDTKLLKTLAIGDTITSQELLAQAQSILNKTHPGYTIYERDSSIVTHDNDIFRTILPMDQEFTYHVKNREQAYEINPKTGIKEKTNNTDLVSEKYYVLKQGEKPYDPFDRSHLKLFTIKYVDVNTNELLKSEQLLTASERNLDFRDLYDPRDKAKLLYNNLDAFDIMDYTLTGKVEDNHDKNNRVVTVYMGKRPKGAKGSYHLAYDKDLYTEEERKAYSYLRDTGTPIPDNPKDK", "assay": "viability-normalized secreted streptokinase activity reduction – plasminogen activation absorbance, OD405, dose response (AID 1914);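 further: secreted streptokinase activity via plasminogen activation per viability signal from cell pellet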", "assay_type": "functional, Streptococcus pyogenes M1 GAS"}, "[5]": {"assay": "Luminescence-based counterscreen assay for KLF5 inhibitors: dose response cell-based high throughput screening assay to identify cytotoxic compounds using the IEC-6 intestinal epithelial cell line. [Related pubchem assays: 1700 (Primary screen.), 1834 (Confirmation screen.), 1858 (Summary AID.), 1905 (Counterscreen.)]", "assay_type": "functional"}, "[6]": {"assay": "Trypanosoma cruzi growth suppression in host cells – NIH3T3 host cells, beta-gal luminescence, confirmation (AID 2044);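 further: intracellular parasites grown in NIH/3T3 mouse fibroblasts as host cells; luminescent beta-galactosidase reporter signal from transgenic T. cruzi replicating inside host cells; inhibitors lower the luminescence signal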", "assay_type": "functional, cell-based"}, "cells [7]": {"assay": "cells", "assay_type": "functional, cell-based", "remark": "listed apart in the source"}, "[8]": {"assay": "NIH3T3 cell viability loss – ATP luminescence, mouse fibroblasts, counter-screen, dose response (AID 2010);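 further: cells exposed to compound for about 90 hours before reading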", "assay_type": "functional, cell-based"}, "Streptococcus": {"tested_on": "Streptococcus", "assay": "GAS UMAA2166 growth inhibition – luminescence, BacTiterGlo, counter-screen for streptokinase expression inhibitor project, dose response (AID 1915);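 further: potency for reduction of bacterial viability or growth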", "assay_type": "functional, organism-based"}, "HEK293 [9]": {"tested_on": "HEK293", "assay": "EBV LMP1 TES2 canonical NF-kB signalling blockers – cell-based, HEK293, luciferase, cherry-pick, dose response (AID 588343)", "assay_type": "functional", "settings": "Homo sapiens"}, "INS1": {"tested_on": "INS1", "assay": "INS-1E survival protection against cytokine death – cell-based, luminescence, retest, dose response (AID 449756);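 further: cell death triggered by IL-1 beta plus TNF-alpha plus IFN-gamma mixture; protective hits raise ATP signal compared with cytokine alone wells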", "assay_type": "functional", "settings": "Rattus norvegicus"}, "HEK293 [10]": {"tested_on": "HEK293", "assay": "Fluorescence-based counterscreen for potentiators or agonists of NPY-Y2: cell-based high-throughput dose response assay to identify inhibitors of cyclic nucleotide gated ion channel (CNGC) activity. In this assay, the parental HEK293 cell line transfected with a cyclic-nucleotide gated ion channel (CNGC)-based cAMP sensor is used to measure inhibition of isoproterenol-induced CNGC activity by test compound.", "assay_type": "functional", "settings": "Homo sapiens"}, "[11]": {"biological_target": "Neuropeptide Y receptor type 2 (Homo sapiens, UniProt P49146)", "sequence (P49146 whole entry)": "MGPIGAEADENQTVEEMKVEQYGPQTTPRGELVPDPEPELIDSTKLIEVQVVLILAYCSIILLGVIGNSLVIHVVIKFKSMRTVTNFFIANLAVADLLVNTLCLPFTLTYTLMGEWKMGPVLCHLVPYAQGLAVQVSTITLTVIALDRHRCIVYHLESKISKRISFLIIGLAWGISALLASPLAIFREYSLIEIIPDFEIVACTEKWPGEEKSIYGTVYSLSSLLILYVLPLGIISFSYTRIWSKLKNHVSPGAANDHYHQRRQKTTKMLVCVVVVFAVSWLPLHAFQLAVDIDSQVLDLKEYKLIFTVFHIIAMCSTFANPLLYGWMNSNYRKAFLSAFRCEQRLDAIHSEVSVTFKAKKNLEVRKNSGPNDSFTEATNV", "assay": "Fluorescence-based cell-based high-throughput dose response assay for agonists of NPY-Y2. [Related pubchem assays: 1703 (Screening assay (CNGC inhibitors).), 1359 (Screening assay (NPY-Y2 potentiators or agonists).), 1304 (Screening assay (NPY-Y1 potentiators or agonists).), 1710 (Screening assay (NPY-Y2 agonists).), 1791 (Summary AID.)]", "assay_type": "functional"}, "[12]": {"biological_target": "Neuropeptide Y receptor type 1 (Homo sapiens, UniProt P25929)", "sequence (P25929 whole entry)": "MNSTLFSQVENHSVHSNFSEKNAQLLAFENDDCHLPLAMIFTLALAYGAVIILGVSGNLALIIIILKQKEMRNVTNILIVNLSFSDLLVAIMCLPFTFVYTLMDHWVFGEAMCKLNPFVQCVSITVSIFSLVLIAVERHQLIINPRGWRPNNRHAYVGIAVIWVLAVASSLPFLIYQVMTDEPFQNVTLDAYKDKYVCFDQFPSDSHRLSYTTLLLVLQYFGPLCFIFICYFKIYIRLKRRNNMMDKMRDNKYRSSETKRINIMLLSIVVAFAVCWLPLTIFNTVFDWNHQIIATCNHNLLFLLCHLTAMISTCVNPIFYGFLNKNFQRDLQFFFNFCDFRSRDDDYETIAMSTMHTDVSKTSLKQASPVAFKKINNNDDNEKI", "assay": "Fluorescence-based counterscreen for agonists of NPY-Y2: cell-based high-throughput dose response assay for agonists of NPY-Y1.", "assay_type": "functional"}, "[13]": {"assay": "A cytotoxicity screen of small molecule inhibitors of the PhoP region in Salmonella typhi identified in the primary screen. [Related pubchem assays: 1850, 1864, 1985 ]", "assay_type": "functional"}}, "note": "Activity calls are given as the source filed them."}
{"smiles": "C[N+]1=C2c3ccccc3N=CN2CC1", "values": [{"measurement": "IC50", "setting": "[1]", "result": "> 100 µM (inactive)"}, {"measurement": "IC50", "setting": "[2]", "result": "4.47 µM (active)"}]}
{"smiles": "CC1CCN(S(=O)(=O)c2ccc3ccccc3c2)CC1", "values": [{"measurement": "EC50", "setting": "Mucolipin-3", "result": "2.83 µM (active)"}, {"measurement": "EC50", "setting": "Ion channel NompC", "result": "> 29.9 µM (not active)"}]}
{"smiles": "Cc1ccc2[nH]c(C(=O)N/N=C/c3ccccc3O)c(C)c2c1", "values": [{"measurement": "EC50", "setting": "[3]", "result": "1.63 µM (active)"}, {"measurement": "EC50", "setting": "cells [4]", "result": "6.86 µM (active)"}, {"measurement": "EC50", "setting": "Streptokinase A", "result": "> 150 µM (not active)"}, {"measurement": "IC50", "setting": "[5]", "result": "3.15 µM (active)"}, {"measurement": "EC50", "setting": "[6]", "result": "0.564 µM (active)"}, {"measurement": "EC50", "setting": "cells [7]", "result": "> 350 µM (not active)"}, {"measurement": "EC50", "setting": "[8]", "result": "6.55 µM (active)"}, {"measurement": "EC50", "setting": "Streptococcus", "result": "3.86 µM (active)"}, {"measurement": "AC50", "setting": "HEK293 [9]", "result": "7.07 µM (active)"}, {"measurement": "AC50", "setting": "INS1", "result": "0.507 µM (active)"}]}
{"smiles": "CC(Nc1ccccc1)c1cccnc1", "note": "(stereo not given)", "values": [{"measurement": "EC50", "setting": "HEK293 [10]", "result": "> 35.4 µM (not active)"}, {"measurement": "EC50", "setting": "[11]", "result": "> 35.4 µM (not active)"}, {"measurement": "EC50", "setting": "[12]", "result": "> 35.4 µM (not active)"}]}
{"smiles": "CCc1nc(C)ccc1OCC(=O)N(CC)CC", "values": [{"measurement": "EC50", "setting": "[13]", "result": "> 50 µM (active)"}]}
{"smiles": "O=C(C1Cc2ccccc2CN1S(=O)(=O)c1ccc(F)cc1)N1CCCCC1", "note": "(stereo not given)", "values": [{"measurement": "EC50", "setting": "Mucolipin-3", "result": "2.06 µM (active)"}, {"measurement": "EC50", "setting": "Ion channel NompC", "result": "13.3 µM (not active)"}]}
